Measured values reported in patent US20240166610A1, “SUBSTITUTED PYRIDAZINE PHENOL DERIVATIVES” (MEDSHINE DISCOVERY INC., priority 2021, published 2024).
Structures can show the parent of a compound that is named as a salt. Blank lines part the entries; values can stand above or below the molecule they belong to.

Experiments:
NLRP3 = biological target: T1, NLRP3 (Homo sapiens, UniProt Q96P20); test: Detecting IC50 of NLRP3 inhibitor by using THP-1 cells (IL-1β secretion, CBA); type: cell-based; conditions: PMA/LPS/ATP, IL-1β in supernatant
T1 construct: This experiment utilized the human-derived monocyte cell line THP1; endogenous in cells; host or cells: THP-1 (human monocyte line, PMA-differentiated into macrophages)
Excerpt: 1. Experimental principle: This experiment utilized the human-derived monocyte cell line THP1 to investigate the inhibitory activity (IC50) of NLRP3 inhibitor on cellular IL-1β secretion. PMA (12-O-tetradecanoylphorbol-13-acetate) was used to differentiate the monocyte cell line THP1 into mature macrophages, which were then stimulated using LPS (lipopolysaccharide), an agonist of the Toll-like receptor TLR4, to activate the transcriptional activity of the inflammasome NLRP3 and the expression of pro-IL-1β, a precursor of IL-1β. At this time, the inhibitor of NLRP3 was added, and then ATP (adenosine triphosphate) was added to further mature and activate NLRP3, and activate downstream caspase-1. Activated caspase-1 may enzymatically process pro-IL-1β into mature IL-1β that can be secreted.
(1) The density of THP1 cells was adjusted to 5×10^5 cells/mL, then PMA was added, and the final concentration was adjusted to 100 ng/mL. The cells were inoculated 200 μL/well into a 96-well flat-bottom plate, stimulated overnight (<16 hours if possible) at 37° C. and 5% CO2.
(2) The supernatant was discarded the next day, and then the cells were carefully washed twice with Dulbecco's phosphate-buffered saline (200 μL/time).
(3) The cells were stimulated with LPS at a final concentration of 100 ng/mL, added to a 96-well plate (200 μL/well), and cultured at 37° C. and 5% CO2 for 3 hours.
The cells were incubated for 1 hour in a 37° C., 5% CO2 incubator.
(5) ATP was added to each well with a final concentration of 5 mM, and cultured overnight (>18 hours) at 37° C. and 5% CO2.
(6) On the third day, 5 μL of the supernatant was taken, diluted 10-fold, and the content of IL-1β in the supernatant was detected by cytometric bead array (CBA).

[1] = biological target: T2, hERG potassium ion channel (Homo sapiens, UniProt Q12809); test: Inhibition test on hERG potassium ion channel (automated patch clamp, CHO-hERG cells); type: cell-based; conditions: Qpatch, highest test concentration 40.00 μM
T2 construct: expressed in transfected cells; host or cells: CHO (CHO-hERG cell line)
Method: Experimental Example 4: Inhibition Test of Compounds on hERG Potassium Ion Channel
Experimental purpose: To detect the effect of the compounds to be tested on the hERG potassium channel by an automated patch clamp method.
1.1 CHO-hERG cells were cultured in a 175 cm^2 culture flask. When the cell density reached 60 to 80%, the culture medium was removed, and the cells were washed once with 7 mL of PBS (phosphate buffered saline), and then digested with 3 mL of digestion solution.
1.2 After the digestion was completed, 7 mL of culture medium was added to neutralize, then the mixture was centrifuged, and the supernatant was aspirated, and then 5 mL of culture medium was added to re-suspend, ensuring 2 to 5×10^6/mL of cell density.
The process of single cell high impedance sealing and whole cell mode formation were all automatically completed by Qpatch instrument, after obtaining the whole cell recording mode, the cells were clamped at −80 mV, before giving a 5-second +40 mV depolarization stimulus, a 50 millisecond −50 mV prevoltage was given first, and then repolarized to −50 mV for 5 seconds, then returned to −80 mV This voltage stimulation was applied every 15 seconds and after recording for 2 minutes, extracellular fluid was recordings for 5 minutes, and then the administration process was started. The compound concentration was given from the lowest test concentration, each test concentration was given for 2.5 minutes, and 3 μM of Cisapride as the positive control compound was given after all concentrations were continuously given. At least 3 cells (n≥3) were tested at each concentration.
4.1 The mother solution of the compound was diluted with DMSO, and 10 μL of mother solution of the compound was added to 20 μL of DMSO solution, and was 3-fold diluted continuously to 6 DMSO concentrations.
4.2 4 μL of compounds with 6 DMSO concentrations were added to 396 μL of extracellular fluid, 100-fold diluted to 6 intermediate concentrations, and then 80 μL of the compounds with 6 intermediate concentrations were added to 320 μL of extracellular fluid, 5-fold diluted to the final concentration to be tested.
4.3 The highest test concentration was 40.00 μM, in a total of 6 concentrations of 40.00, 13.33, 4.44, 1.48, 0.49, and 0.16 μM respectively.
4.4 The content of DMSO in the final test concentration was not more than 0.2%, and this concentration of DMSO had no effect on hERG potassium channel.
4.5 The whole dilution process of compound preparation was completed by Bravo instrument.
The experimental data were analyzed by GraphPad Prism 5.0 software.

[2] = In vivo pharmacokinetic evaluation in CD-1 mice; conditions: male, mouse, plasma; for half-life: IV, read-out: Half-life T1/2 (IV) (converted); for clearance: read-out: Clearance rate CL; for Vd: read-out: Tissue distribution Vdss; for AUC(0-t): PO, read-out: Area under drug-time curve AUC0-last PO; for bioavailability: read-out: Bioavailability F; for Cmax: read-out: Peak concentration Cmax
Method: Experimental Example 2: In Vivo Pharmacokinetic Evaluation of Compounds in CD-1 Mice
Experimental purpose: To test the in vivo pharmacokinetics of the compounds in CD-1 mice
CD-1 mice (male, 7 to 9 weeks old)
The rodent pharmacokinetic characteristics after intravenous injection and oral administration of the compounds were tested using a standard protocol. The candidate compound was prepared as a clear solution during the experiment and given to mice for single intravenous injection and oral administration. The vehicle for intravenous injection and oral administration was a mixed vehicle composed of 5% dimethyl sulfoxide and 95% 5% solutol. Four male CD-1 mice were used in this project. Two mice were administered intravenously (IV), and plasma samples were collected at 0 hours (before administration) and 0.0833, 0.25, 0.5, 1, 2, 4, 8, and 24 hours after administration. The other two mice were administered orally by gavage (PO), and plasma samples were collected at 0 hours (before administration) and 0.25, 0.5, 1, 2, 4, 8, and 24 hours after administration. The plasma concentration was quantitatively analyzed by LC-MS/MS analysis method, and the pharmacokinetic parameters were calculated, such as peak concentration (Cmax), clearance rate (CL), half-life (T1/2), […] (Vdss), area under drug-time curve (AUC0-last), bioavailability (F).

[3] = In vivo pharmacokinetic evaluation in SD rats; conditions: male, rat, plasma, dose IV/PO 1/2 mg/kg; for half-life / clearance / Vd: 1 mg/kg; for half-life: IV, read-out: Half-life T1/2 (IV) (converted); for clearance: read-out: Clearance rate CL; for Vd: read-out: Tissue distribution Vdss; for AUC(0-t): PO, read-out: Area under drug-time curve AUC0-last PO; for bioavailability: read-out: Bioavailability F; for Cmax: read-out: Peak concentration Cmax
Method: Experimental Example 3: In Vivo Pharmacokinetic Evaluation of Compounds in SD Rats
Experimental Purpose: To Test the In Vivo Pharmacokinetics of the Compounds in SD Rats
The rodent pharmacokinetic characteristics after intravenous injection and oral administration of the compounds were tested using a standard protocol. The candidate compound was prepared as a clear solution during the experiment and given to SD rats for single intravenous injection and oral administration. The vehicle for intravenous injection and oral administration was a mixed vehicle composed of 5% dimethyl sulfoxide and 95% 5% solutol. Four male SD rats were used in this project. Two SD rats were administered intravenously, and plasma samples were collected at 0.083, 0.25, 0.5, 1, 2, 4, 8, and 24 hours after administration. The other two SD rats were administered orally by gavage, and plasma samples were collected at 0.25, 0.5, 1, 2, 4, 8, and 24 hours after administration. The plasma concentration was quantitatively analyzed by LC-MS/MS analysis method, and the pharmacokinetic parameters were calculated, such as peak concentration (Cmaz), clearance rate (CL), half-life (T1/2), […] (Vdss), area under drug-time curve (AUC0-last), bioavailability (F).

T1 sequence (Q96P20 whole entry): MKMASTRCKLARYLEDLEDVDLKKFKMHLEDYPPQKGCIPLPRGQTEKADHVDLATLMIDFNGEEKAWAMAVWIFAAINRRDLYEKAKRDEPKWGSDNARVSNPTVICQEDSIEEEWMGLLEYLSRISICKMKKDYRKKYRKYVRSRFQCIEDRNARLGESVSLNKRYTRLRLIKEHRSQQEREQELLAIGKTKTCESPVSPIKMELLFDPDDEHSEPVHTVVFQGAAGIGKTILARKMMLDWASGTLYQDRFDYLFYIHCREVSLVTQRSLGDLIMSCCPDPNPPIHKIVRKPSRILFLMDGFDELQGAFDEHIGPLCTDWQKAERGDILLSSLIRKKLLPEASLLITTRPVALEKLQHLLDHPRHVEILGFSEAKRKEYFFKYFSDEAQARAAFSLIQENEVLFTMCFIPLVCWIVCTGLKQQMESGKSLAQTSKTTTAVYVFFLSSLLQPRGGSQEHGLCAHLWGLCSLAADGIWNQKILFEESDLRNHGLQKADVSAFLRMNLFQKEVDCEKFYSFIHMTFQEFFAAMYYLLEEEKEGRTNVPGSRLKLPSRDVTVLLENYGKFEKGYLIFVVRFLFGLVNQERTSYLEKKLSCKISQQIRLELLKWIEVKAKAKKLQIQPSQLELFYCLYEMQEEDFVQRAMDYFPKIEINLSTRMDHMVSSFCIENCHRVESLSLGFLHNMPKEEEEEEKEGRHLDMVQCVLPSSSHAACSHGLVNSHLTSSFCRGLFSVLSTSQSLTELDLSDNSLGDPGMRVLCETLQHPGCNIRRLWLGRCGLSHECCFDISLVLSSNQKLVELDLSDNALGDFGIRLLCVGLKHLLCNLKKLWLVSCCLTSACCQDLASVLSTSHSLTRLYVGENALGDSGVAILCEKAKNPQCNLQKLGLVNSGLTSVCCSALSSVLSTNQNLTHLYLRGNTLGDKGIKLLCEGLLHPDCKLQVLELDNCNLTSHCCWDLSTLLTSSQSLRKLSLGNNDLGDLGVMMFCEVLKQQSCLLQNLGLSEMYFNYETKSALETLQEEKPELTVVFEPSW
T2 sequence (Q12809 whole entry): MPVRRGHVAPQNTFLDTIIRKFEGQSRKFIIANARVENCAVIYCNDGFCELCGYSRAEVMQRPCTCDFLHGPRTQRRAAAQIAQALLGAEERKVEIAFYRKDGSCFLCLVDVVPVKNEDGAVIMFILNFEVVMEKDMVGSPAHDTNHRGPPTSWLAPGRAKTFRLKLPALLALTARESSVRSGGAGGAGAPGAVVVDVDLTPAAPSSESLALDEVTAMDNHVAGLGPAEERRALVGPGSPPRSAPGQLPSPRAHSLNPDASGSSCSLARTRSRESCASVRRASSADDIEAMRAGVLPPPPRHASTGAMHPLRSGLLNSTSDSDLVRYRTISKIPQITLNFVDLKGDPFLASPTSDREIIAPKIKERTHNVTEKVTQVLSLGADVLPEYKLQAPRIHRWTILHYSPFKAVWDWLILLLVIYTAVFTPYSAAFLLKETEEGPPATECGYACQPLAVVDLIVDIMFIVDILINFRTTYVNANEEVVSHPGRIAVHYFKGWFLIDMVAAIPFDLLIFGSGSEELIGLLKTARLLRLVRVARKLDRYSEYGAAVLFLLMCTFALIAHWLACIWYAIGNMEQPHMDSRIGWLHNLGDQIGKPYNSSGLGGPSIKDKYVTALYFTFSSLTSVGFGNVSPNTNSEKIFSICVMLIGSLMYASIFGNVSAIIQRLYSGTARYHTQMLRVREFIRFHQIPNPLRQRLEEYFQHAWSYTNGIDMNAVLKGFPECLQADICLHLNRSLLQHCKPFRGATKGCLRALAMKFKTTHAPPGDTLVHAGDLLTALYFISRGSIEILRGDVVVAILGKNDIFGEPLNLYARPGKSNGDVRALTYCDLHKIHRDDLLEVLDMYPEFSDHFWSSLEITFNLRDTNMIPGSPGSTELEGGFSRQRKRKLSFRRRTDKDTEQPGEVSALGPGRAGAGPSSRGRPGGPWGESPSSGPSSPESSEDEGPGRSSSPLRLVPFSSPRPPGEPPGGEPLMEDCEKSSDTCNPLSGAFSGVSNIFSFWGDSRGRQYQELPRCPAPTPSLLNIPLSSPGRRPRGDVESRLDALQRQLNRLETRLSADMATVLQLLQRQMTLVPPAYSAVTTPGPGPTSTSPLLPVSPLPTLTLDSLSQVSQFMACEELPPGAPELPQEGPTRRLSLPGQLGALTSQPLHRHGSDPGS

- IC50 (NLRP3): 3.33 nM
SMILES: Cc1cc(NC2CN(C)CC(F)(F)C2)nnc1-c1ccc2sccc2c1O (single isomer, unassigned) [Compound 70b]
- IC50 [1]: > 40 µM

- IC50 (NLRP3): 2.87 nM
SMILES: Cc1cc(N[C@@H]2CCCN(CC(F)(F)F)C2)nnc1-c1ccc2sccc2c1O [Compound 48]
- IC50 at 2.5 min ([1]; human, CHO cells that express hERG (CHO-hERG)): ≥ 42.6 µM

- IC50 (NLRP3): 0.74 nM
- half-life [3]: 67.2 min
- clearance [3]: 10.3 mL/min/kg
- Vd [3]: 0.796 L/kg
- AUC(0-t) [3]: 4.69 µM·h
- bioavailability [3]: 49.8%
- Cmax [3]: 1520 nM
SMILES: Cc1cc(N[C@@H]2CCCN(CC#N)C2)nnc1-c1ccc2sccc2c1O [Compound 53]
- IC50 [1]: 17.1 µM

- IC50 (NLRP3): 0.08 nM
- half-life ([2]; 2 mg/kg, dose IV/PO 2/10 mg/kg): 196 min
- clearance ([2]; 2 mg/kg, dose IV/PO 2/10 mg/kg): 28.7 mL/min/kg
- Vd ([2]; 2 mg/kg, dose IV/PO 2/10 mg/kg): 7.03 L/kg
- AUC(0-t) ([2]; dose IV/PO 2/10 mg/kg): 16 µM·h
- bioavailability ([2]; dose IV/PO 2/10 mg/kg): 96.5%
- Cmax ([2]; dose IV/PO 2/10 mg/kg): 4.29 µM
- half-life [3]: 109 min
- clearance [3]: 48.5 mL/min/kg
- Vd [3]: 6.79 L/kg
- AUC(0-t) [3]: 0.926 µM·h
- bioavailability [3]: 49.7%
- Cmax [3]: 204 nM
SMILES: Cc1cc(N[C@@H]2CCCN(C)C2)nnc1-c1ccc2sccc2c1O [Hydrochloride of compound 20]
- IC50 [1]: 10.3 µM

- IC50 (NLRP3): 3.37 nM
SMILES: Cc1cc(NC[C@@H](C)O)nnc1-c1ccc2sccc2c1O [Hydrochloride of compound 57]
- IC50 [1]: > 40 µM

- IC50 (NLRP3): 1.73 nM
SMILES: Cc1cc(N[C@H]2COC[C@@H]2O)nnc1-c1ccc2sccc2c1O [Hydrochloride of compound 59]
- IC50 [1]: > 40 µM

- IC50 (NLRP3): 0.436 nM
- half-life ([2]; 2 mg/kg, dose IV/PO 2/10 mg/kg): 87 min
- clearance ([2]; 2 mg/kg, dose IV/PO 2/10 mg/kg): 12.8 mL/min/kg
- Vd ([2]; 2 mg/kg, dose IV/PO 2/10 mg/kg): 1.08 L/kg
- AUC(0-t) ([2]; dose IV/PO 2/10 mg/kg): 48.1 µM·h
- bioavailability ([2]; dose IV/PO 2/10 mg/kg): 147%
- Cmax ([2]; dose IV/PO 2/10 mg/kg): 22.2 µM
- half-life [3]: 64.8 min
- clearance [3]: 10 mL/min/kg
- Vd [3]: 0.402 L/kg
- AUC(0-t) [3]: 6.66 µM·h
- bioavailability [3]: 71.1%
- Cmax [3]: 2610 nM
SMILES: Cc1cc(N[C@@H]2CCCC[C@H]2O)nnc1-c1ccc2sccc2c1O [Hydrochloride of compound 60]
- IC50 [1]: > 40 µM

The remaining lines, values behind:

SMILES: Cc1cc(NC2CN(C)CC(F)(F)C2)nnc1-c1ccc2sccc2c1O (single isomer, unassigned) [Compound 70a]
- IC50 (NLRP3): 23.4 nM
- IC50 [1]: 34.2 µM

SMILES: Cc1cc(N[C@@H]2CCCN(CC#N)C2)nnc1-c1ccc2c(c1O)CCC2 [Compound 12a]
- IC50 (NLRP3): 0.97 nM
- IC50 [1]: 31.5 µM

SMILES: Cc1cc(N[C@@H]2CCCN(C3COC3)C2)nnc1-c1ccc2c(c1O)CCC2 [Compound 13]
- IC50 (NLRP3): 1.55 nM
- IC50 [1]: 21.1 µM

SMILES: Cc1cc(N[C@@H]2CCCN(C3COC3)C2)nnc1-c1ccc(-c2ccc(F)cc2)cc1O [Compound 21]
- IC50 (NLRP3): 62.7 nM
- IC50 [1]: 10.6 µM

SMILES: Cc1cc(N[C@@H]2CCCN(C3COC3)C2)nnc1-c1ccc(C2CC2)cc1O [Compound 22]
- IC50 (NLRP3): 9.2 nM
- half-life ([2]; 1 mg/kg, dose IV/PO 1/2 mg/kg): 67.8 min
- clearance ([2]; 1 mg/kg, dose IV/PO 1/2 mg/kg): 9.56 mL/min/kg
- Vd ([2]; 1 mg/kg, dose IV/PO 1/2 mg/kg): 0.718 L/kg
- AUC(0-t) ([2]; dose IV/PO 1/2 mg/kg): 5.33 µM·h
- bioavailability ([2]; dose IV/PO 1/2 mg/kg): 62.4%
- Cmax ([2]; dose IV/PO 1/2 mg/kg): 3.22 µM
- IC50 [1]: > 40 µM

SMILES: Cc1cc(N[C@@H]2CCCN(CC#N)C2)nnc1-c1ccc(C2CC2)cc1O [Compound 23]
- IC50 (NLRP3): 4.7 nM
- half-life ([2]; 1 mg/kg, dose IV/PO 1/2 mg/kg): 74.4 min
- clearance ([2]; 1 mg/kg, dose IV/PO 1/2 mg/kg): 6.49 mL/min/kg
- Vd ([2]; 1 mg/kg, dose IV/PO 1/2 mg/kg): 0.618 L/kg
- AUC(0-t) ([2]; dose IV/PO 1/2 mg/kg): 10.4 µM·h
- bioavailability ([2]; dose IV/PO 1/2 mg/kg): 79.9%
- Cmax ([2]; dose IV/PO 1/2 mg/kg): 3.84 µM
- IC50 [1]: > 40 µM

SMILES: Cc1cc(N[C@H]2CN3CCC2CC3)nnc1-c1ccc2c(c1O)CCC2 [Hydrochloride of compound 7]
- IC50 (NLRP3): 5.72 nM
- IC50 [1]: 37.5 µM
